Like-named read-outs stand apart in the source and are kept apart here.
Tests used:
BRD4(BD1) = BRD4(BD1) (Homo sapiens (Human), UniProt O60885); experiment: In vitro enzyme inhibition assay (BRD4 AlphaScreen); assay type: binding
How it was run: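 AlphaScreen proximity readout, using streptavidin donor and Ni-chelate acceptor beads at 5 μg/mL final, monitors biotin-H4 tetraacetylated peptide interaction with purified His-tagged BRD4.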

[1] = system: Raji, human Burkitts lymphoma cells; experiment: Cell-MTS proliferation assay, Raji; assay type: cell-based; conditions: Homo sapiens, 168 hr
How it was run: (§1)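 Cells were seeded per 96-well at densities giving ~90% confluence by day 7 (Raji 15,000, HL-60 5,000, NCI-H460 3,000) and dosed 24 hr later with an 11-point dilution, 100 μM to 2.0 nM final. Seven-day MTS colorimetric read at OD490; IC50 from background-subtracted, DMSO-normalised values.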

[2] = system: HL-60, human proleukemia cells; experiment: Cell-MTS proliferation assay, HL-60; assay type: cell-based; conditions: Homo sapiens, 168 hr
How it was run: as §1

[3] = system: NCI-H460, human non-small cell lung cancer cells; experiment: Cell-MTS proliferation assay, NCI-H460; assay type: cell-based; conditions: Homo sapiens, 168 hr
How it was run: as §1

[4] = in vitro enzyme inhibition assay
[5] = NCI-H460, Cell-MTS proliferation
[6] = Raji, Cell-MTS, class symbols A/B/C
[7] = HL-60, Cell-MTS, class symbols A/B/C
[8] = NCI-H460, Cell-MTS, class symbols A/B/C
[9] = Cell-MTS proliferation, Raji cells
[10] = Cell-MTS proliferation, HL-60 cells
[11] = Cell-MTS proliferation, NCI-H460 cells

| IC50 (BRD4(BD1); [4]) [µM] | IC50 ([1]; Raji, Cell-MTS proliferation) [µM] | IC50 ([2]; HL-60, Cell-MTS proliferation) [µM] | IC50 [3, 5] [µM] | SMILES | further results |
| --- | --- | --- | --- | --- | --- |
| < 0.5 | – | – | – | CCS(=O)(=O)Nc1ccc(O[C@H]2CC[C@@H](O)CC2)c(-c2cc(C)c(=O)n(C)c2)c1 [Example 431, N-[3-(1,5-dimethyl-6-oxopyridin-3-yl)-4-(cis-4-hydroxycyclohexyl)oxyphenyl]ethanesulfonamide] | IC50 [1, 9]: 0.5 to 5 µM; IC50 [2, 10]: < 0.5 µM; IC50 [3, 11]: > 5 µM |
| < 0.5 | – | – | – | CCS(=O)(=O)Nc1ccc(Oc2ccc(F)cc2F)c(-c2cn(C)c(=O)c3ccoc23)c1 [Example 379, N-[4-(2,4-difluorophenoxy)-3-(5-methyl-4-oxofuro[3,2-c]pyridin-7-yl)phenyl] ethanesulfonamide] | IC50 [1, 9]: < 0.5 µM; IC50 [2, 10]: < 0.5 µM; IC50 [3, 11]: > 5 µM |
| < 0.5 | – | – | – | CCS(=O)(=O)c1ccc(OCC2CC2)c(-c2cc(C)c(=O)n(C)c2)c1 [Example 450, 5-[2-(cyclopropylmethoxy)-5-ethylsulfonylphenyl]-1,3-dimethylpyridin-2-one] | IC50 [1, 9]: < 0.5 µM; IC50 [2, 10]: < 0.5 µM; IC50 [3, 11]: > 5 µM |
| < 0.5 | – | – | – | Cn1cc(-c2cn(CS(C)(=O)=O)c(=O)cc2OCC2CC2)c2ccccc2c1=O [Example 384, 4-[4-(cyclopropylmethoxy)-1-(methylsulfonylmethyl)-6-oxopyridin-3-yl]-2-methylisoquinolin-1-one] | IC50 [1, 9]: 0.5 to 5 µM; IC50 [2, 10]: < 0.5 µM; IC50 [3, 11]: > 5 µM |
| < 0.5 | – | – | – | CCS(=O)(=O)c1ccc(NCC2CC2)c(-c2cc(N(C)C)c(=O)n(C)c2)c1 [Example 440, 5-[2-(cyclopropylmethylamino)-5-ethylsulfonylphenyl]-3-(dimethylamino)-1-methylpyridin-2-one] | IC50 [1, 9]: < 0.5 µM; IC50 [2, 10]: < 0.5 µM; IC50 [3, 11]: > 5 µM |
| 0.5 to 5 | > 5 | 0.5 to 5 | > 5 | CCCc1ccc(S(C)(=O)=O)cc1-c1ccc(=O)n(C)c1 [Example 313, 1-methyl-5-(5-methylsulfonyl-2-propylphenyl)pyridin-2-one] | – |
| < 0.5 | < 0.5 | < 0.5 | > 5 | Cn1cc(-c2cc(OCc3ccccc3)cc(S(C)(=O)=O)c2)c2ccoc2c1=O [Example 349, 6-methyl-4-(3-methylsulfonyl-5-phenylmethoxyphenyl)furo[2,3-c]pyridin-7-one] | – |
| < 0.5 | 0.5 to 5 | < 0.5 | > 5 | Cc1cc(-c2cc(OCc3ccccc3OC(F)F)cc(S(C)(=O)=O)c2)cn(C)c1=O [Example 333, 5-[3-[[2-(difluoromethoxy)phenyl]methoxy]-5-methylsulfonylphenyl]-1,3-dimethylpyridin-2-one] | – |
| < 0.5 | 0.5 to 5 | 0.5 to 5 | > 5 | Cc1cc(-c2cc(OCCC3CC3)cc(S(C)(=O)=O)c2)cn(C)c1=O [Example 327, 5-[3-(2-cyclopropylethoxy)-5-methylsulfonylphenyl]-1,3-dimethylpyridin-2-one] | – |
| < 0.5 | – | – | – | CCS(=O)(=O)c1ccc(OCC2CC2)c(-c2cc(OC)c(=O)n(C)c2)c1 [Example 399, 5-[2-(cyclopropylmethoxy)-5-ethylsulfonylphenyl]-3-methoxy-1-methylpyridin-2-one] | IC50 [1, 9]: < 0.5 µM; IC50 [2, 10]: < 0.5 µM; IC50 [3, 11]: > 5 µM |
| < 0.5 | – | – | – | CCOc1ccc(S(=O)(=O)CC)cc1-c1cc(N(C)C)c(=O)n(C)c1 [Example 469, 3-(dimethylamino)-5-(2-ethoxy-5-ethylsulfonylphenyl)-1-methylpyridin-2-one] | IC50 [1, 9]: < 0.5 µM; IC50 [2, 10]: < 0.5 µM; IC50 [3, 11]: > 5 µM |
| < 0.5 | – | – | – | Cc1cc(-c2cc(S(C)(=O)=O)ccc2NCC2CC2)cn(C)c1=O [Example 462, 5-[2-(cyclopropylmethylamino)-5-methylsulfonylphenyl]-1,3-dimethylpyridin-2-one] | IC50 [1, 9]: < 0.5 µM; IC50 [2, 10]: < 0.5 µM; IC50 [3, 11]: > 5 µM |

More lines, now with the values behind:

| SMILES | IC50 (BRD4(BD1); [4]) [µM] | IC50 ([1]; Raji, Cell-MTS proliferation) [µM] | IC50 ([2]; HL-60, Cell-MTS proliferation) [µM] | IC50 [3, 5] [µM] | further results |
| --- | --- | --- | --- | --- | --- |
| Cc1cc(-c2cc(S(C)(=O)=O)ccc2OCC2CC2)cn(CC2COC2)c1=O [Example 245, 5-[2-(cyclopropylmethoxy)-5-methylsulfonylphenyl]-3-methyl-1-(oxetan-3-ylmethyl)pyridin-2-one] | 0.5 to 5 | > 5 | > 5 | > 5 | – |
| CCS(=O)(=O)Nc1cccc(-c2cn(C)c(=O)c3ccncc23)c1 [Example 123, N-[3-(2-methyl-1-oxo-2,6-naphthyridin-4-yl)phenyl]ethanesulfonamide] | – | – | – | – | IC50 (BRD4(BD1); class symbols A/B/C): 0.5 to 5 µM; IC50 [1, 6]: 0.5 to 5 µM; IC50 [2, 7]: 0.5 to 5 µM; IC50 [3, 8]: > 5 µM |
| CCS(=O)(=O)Nc1ccc(Oc2ccc(F)cc2F)c(-c2cc(F)c(=O)n(C)c2)c1 [Example 122, N-[4-(2,4-difluorophenoxy)-3-(5-fluoro-1-methyl-6-oxopyridin-3-yl)phenyl]ethanesulfonamide] | – | – | – | – | IC50 (BRD4(BD1); class symbols A/B/C): < 0.5 µM; IC50 [1, 6]: < 0.5 µM; IC50 [2, 7]: < 0.5 µM; IC50 [3, 8]: > 5 µM |
| Cn1cc(-c2cc(S(C)(=O)=O)ccc2NCC2CC2)c2ccccc2c1=O [Example 194, 4-[2-(cyclopropylmethylamino)-5-methylsulfonylphenyl]-2-methylisoquinolin-1-one] | – | < 0.5 | < 0.5 | > 5 | IC50 (BRD4(BD1)): < 0.5 µM |
| Cn1cc(-c2cc(S(C)(=O)=O)ccc2NC2CCOC2)c2ccccc2c1=O (stereo not shown) [Example 190, 2-methyl-4-[5-methylsulfonyl-2-(oxolan-3-ylamino)phenyl]isoquinolin-1-one] | < 0.5 | 0.5 to 5 | 0.5 to 5 | > 5 | – |
| Cn1cc(-c2nc(NS(C)(=O)=O)ncc2OCC2CC2)c2ccccc2c1=O [Example 152, N-[5-(cyclopropylmethoxy)-4-(2-methyl-1-oxoisoquinolin-4-yl)pyrimidin-2-yl]methanesulfonamide] | < 0.5 | < 0.5 | < 0.5 | > 5 | – |
| Cn1cc(-c2cc(NS(C)(=O)=O)c(F)cc2OCC2CC2)c2c(c1=O)CCCC2 [Example 218, N-[4-(cyclopropylmethoxy)-2-fluoro-5-(2-methyl-1-oxo-5,6,7,8-tetrahydroisoquinolin-4-yl)phenyl]methanesulfonamide] | < 0.5 | 0.5 to 5 | < 0.5 | > 5 | – |
| COc1ccc(-c2cc(N)c(=O)n(C)c2)cc1NS(C)(=O)=O [Example 109, N-[5-(5-amino-1-methyl-6-oxopyridin-3-yl)-2-methoxyphenyl]methanesulfonamide] | – | – | – | – | IC50 (BRD4(BD1); class symbols A/B/C): 0.5 to 5 µM; IC50 [1, 6]: > 5 µM; IC50 [2, 7]: > 5 µM; IC50 [3, 8]: > 5 µM |
| CCS(=O)(=O)Nc1ncc(OCC2CC2)c(-c2cn(C)c(=O)c3ccccc23)n1 [Example 155, N-[5-(cyclopropylmethoxy)-4-(2-methyl-1-oxoisoquinolin-4-yl)pyrimidin-2-yl]ethanesulfonamide] | < 0.5 | < 0.5 | < 0.5 | > 5 | – |
| COCCn1cc(-c2cc(S(C)(=O)=O)ccc2OCC2CC2)cc(C)c1=O [Example 244, 5-[2-(cyclopropylmethoxy)-5-methylsulfonylphenyl]-1-(2-methoxyethyl)-3-methylpyridin-2-one] | 0.5 to 5 | > 5 | 0.5 to 5 | > 5 | – |
| Cn1cc(-c2cc(S(C)(=O)=O)ccc2OC2CCOCC2)c2ccccc2c1=O [Example 176, 2-methyl-4-[5-methylsulfonyl-2-(oxan-4-yloxy)phenyl]isoquinolin-1-one] | < 0.5 | < 0.5 | < 0.5 | > 5 | – |
| Cn1cc(-c2nc(NS(C)(=O)=O)ncc2OCC2CC2)c2ccc(F)cc2c1=O [Example 158, N-[5-(cyclopropylmethoxy)-4-(7-fluoro-2-methyl-1-oxoisoquinolin-4-yl)pyrimidin-2-yl]methanesulfonamide] | < 0.5 | < 0.5 | < 0.5 | > 5 | – |
| CCS(=O)(=O)Nc1ccc(Oc2ccc(F)cc2F)c(-c2cn(C)c(=O)c3ccccc23)c1 [Example 93, N-[4-(2,4-difluorophenoxy)-3-(2-methyl-1-oxoisoquinolin-4-yl)phenyl]ethanesulfonamide] | – | – | – | – | IC50 (BRD4(BD1); class symbols A/B/C): < 0.5 µM; IC50 [1, 6]: < 0.5 µM; IC50 [2, 7]: < 0.5 µM; IC50 [3, 8]: > 5 µM |
| Cn1cc(-c2nc(S(C)(=O)=O)ccc2OCC2CC2)c2ccc(F)cc2c1=O [Example 201, 4-[3-(cyclopropylmethoxy)-6-methylsulfonylpyridin-2-yl]-7-fluoro-2-methylisoquinolin-1-one] | < 0.5 | < 0.5 | < 0.5 | > 5 | – |
| CCS(=O)(=O)Nc1cccc(-c2cn(C)c(=O)c3ccc(-c4ccccn4)cc23)c1 [Example 87, N-[3-(2-methyl-1-oxo-6-pyridin-2-ylisoquinolin-4-yl)phenyl]ethanesulfonamide] | – | – | – | – | IC50 (BRD4(BD1); class symbols A/B/C): 0.5 to 5 µM; IC50 [1, 6]: 0.5 to 5 µM; IC50 [2, 7]: < 0.5 µM; IC50 [3, 8]: > 5 µM |
| CCc1cnc(NS(=O)(=O)CC)nc1-c1cc(C)c(=O)n(C)c1 [Example 307, N-[4-(1,5-dimethyl-6-oxopyridin-3-yl)-5-ethylpyrimidin-2-yl] ethanesulfonamide] | < 0.5 | < 0.5 | < 0.5 | > 5 | – |

— patent publication US10023592B2, “Bromodomain inhibitors” (Celgene Quanticel Research, Inc., priority 2013, dated 2018)
